Data as given in patent US4704393A, “1-substituted 5-fluorouracil useful for inhibiting the aggregation of platelets” (Terumo Kabushiki Kaisha, priority 1983, dated 1987).
Like-named read-outs stand apart in the source and are kept apart here.

Key:
P388 cells = assay: Chemotherapeutic function: life elongation ratio (ILS %) of mice intra-abdominally transplanted with P388 cells; details: for toxicity compared with 5-FU in P388-bearing mice: 50 mg/kg/day (Example 1 compound), 70 mg/kg/day (Examples 2 and 3 compounds); for chemotherapeutic function compared with 5-FU: P388 mice, Tables 1 and 2; for ILS (%) / Incremental Life Support ILS (%): intra-abdominal, once daily; for Incremental Life Support ILS (%): five consecutive days
Excerpt: To CDFl mice (males five weeks old), 1×10^6 P388 cells/mouse were intra-abdominally transplanted.
By following the procedure described above, each suspension of 0.5% of 1-(5,8,11,14,17-eicosapentaenoyloxy-meyhyl)-5-fluorouracil of Example 2 and 0.5% of 1-(4,7,10,13,16,19-docosahexenoyloxymethyl)-5-fluorouracil of Example 3 in carboxymethyl celloulose was intra-abdominally administered once daily to other mice of the same description to test for life elongation ratio.

[1] = system: platelet aggregation induced by the arachidonic acid; assay: Platelet aggregation inhibition in rabbit PRP, induced by arachidonic acid; format: cell-based; details: Oryctolagus cuniculus
Excerpt: (§1) With a syringe containing an aqueous 3.8% sodium citrate solution (one volume), blood (nine volumes) was collected from a rabbit through the carotid artery. For this blood, blood plasma abounding with blood platelets (PRP: 500,000/μ1) was obtained by centrifugal separation. The compound of the present invention was used on the PRP, with arachidonic acid or collagen as a coagulation inducer, to test for plastocytic coagulation depressing function.
as §1, with “From” for “For”, “400,000/μ)” for “500,000/μ1)”, “an aggregation” for “a coagulation”, “platelet aggregation inhibiting” for “plastocytic coagulation depressing”

[2] = system: platelet aggregation induced by collagen; assay: Platelet aggregation inhibition in rabbit PRP, induced by collagen; format: cell-based; details: Oryctolagus cuniculus, collagen 25 μg/ml
Excerpt: as §1
as §1, with “From” for “For”, “400,000/μ)” for “500,000/μ1)”, “an aggregation” for “a coagulation”, “platelet aggregation inhibiting” for “plastocytic coagulation depressing”

in vivo = details: mouse, ip
Excerpt: To ICR mice (male, seven weeks old), 1-(9,12,15-octadecatrienoyloxymethyl)-5-fluorouracil, 1-(5,8,11,14,17-eicosapentaenoyloxymethyl)-5-fluorouracil, and 1-(4,7,10,13,16,19-docosahexenoyloxymethyl)-5-fluorouracil were intra-abdominally administered to test for acute toxicity.

[3] = arachidonic acid 80 μM, rabbit PRP 400,000/μ, read-out: 50% depression concentration (IC50) on platelet aggregation

SMILES	toxicity compared with 5-FU in P388-bearing mice (P388 cells)	chemotherapeutic function compared with 5-FU (P388 cells)	ILS (%) (P388 cells; Table 2, 3 mg/kg/day)	ILS (%) (P388 cells; Table 2, 10 mg/kg/day)	ILS (%) (P388 cells; Table 2, 30 mg/kg/day)	ILS (%) (P388 cells; Table 2, 70 mg/kg/day)	ILS (%) (P388 cells; Table 2, 100 mg/kg/day)	IC50 [1, 3] [µM]	IC50 ([2]; rabbit PRP 400,000/μ) [µM]	LD50 (in vivo) [mg/kg]	Incremental Life Support ILS (%) (P388 cells; Table 1, 5 mg/kg/day)	Incremental Life Support ILS (%) (P388 cells; Table 1, 10 mg/kg/day)	Incremental Life Support ILS (%) (P388 cells; Table 1, 20 mg/kg/day)	Incremental Life Support ILS (%) (P388 cells; Table 1, 30 mg/kg/day)	IC50 ([2]; rabbit PRP 500,000/μl) [µM]	other results
CCC=CCC=CCC=CCC=CCC=CCCCC(=O)OCn1cc(F)c(=O)[nH]c1=O [1-(5,8,11,14,17-eicosapentaenoyloxymethyl)-5-flourouracil]	less toxic than 5-FU	equal to or better than the function of 5-FU	18	27	40	36	19	120	710	> 500	–	–	–	–	–	–
CCC=CCC=CCC=CCC=CCC=CCC=CCCC(=O)OCn1cc(F)c(=O)[nH]c1=O [1-(4,7,10,13,16,19-docosahexenoyloxymethyl)-5-fluorouracil]	less toxic than 5-FU	equal to or better than the function of 5-FU	17	34	47	30	22	54	90	> 500	–	–	–	–	–	–
CC/C=C\C/C=C\C/C=C\CCCCCCCC(=O)OCn1cc(F)c(=O)[nH]c1=O [1-(9,12,15-octadecatrienoyloxymethyl)-5-fluorouracil]	less toxic than 5-FU	equal to or better than the function of 5-FU	–	–	–	–	–	–	–	> 500	23	52	71	64	34	Incremental Life Support ILS (%) (P388 cells; Table 1, 50 mg/kg/day): 47%; Incremental Life Support ILS (%) (P388 cells; Table 1, 100 mg/kg/day): 7%; IC50 ([1]; arachidonic acid 70 μM, rabbit PRP 500,000/μl, read-out: 50% inhibition concentration (IC50) on platelet aggregation): 640 µM
O=c1[nH]cc(F)c(=O)[nH]1 [Example 5-FU, 5-fluorouracil]	–	–	20	38	-8	–	–	> 1000	≥ 1000	–	35	47	62	-17	530	days of survival compared with control group (P388 cells; 30 mg/kg/day): smaller numbers of days of survival on the mice treatd than the mice of the control group; inhibition at 1000 µM ([1]; arachidonic acid 70 μM, rabbit PRP 500,000/μl, at 1×10^-3 M): 4%; LD50 (in vivo; in vivo): 235 mg/kg
